According to patent US20130059096A1, “METHODS AND COATINGS FOR TREATING BIOFILMS” (President and Fellows of Harvard College, priority 2010, published 2013):
Read-outs that look alike come from different tables or passages of the source.

Legend:
[1] = tested on: Bacillus subtilis NCIB3610; assay: Pellicle (biofilm) formation in liquid biofilm-inducing medium; type: cell-based; conditions: for Biofilm-inhibition assay for B. subtilis: summary statement, concentration not given; for Inhibition of biofilm formation (FIG. 5): MSgg medium; for minimum concentration (MIC for Minimal Inhibitory Concentration) needed to prevent biofilm formation: FIG. 2B, complete inhibition of pellicle formation
Procedure: (§1) Colony and pellicle formation. For colony formation on solid medium, cells were first grown to exponential growth phase in LB broth and 3 μl of culture were spotted onto solid MSgg medium containing 1.5% Bacto agar. The plates were incubated at 23° C. For pellicle formation in liquid medium, cells were grown to exponential phase and 6 μl of culture were mixed with 6 ml of medium in a 12-well plate (VWR). Plates were incubated at 23° C. Images of colonies and pellicles were taken using a SPOT camera (Diagnostic Instruments, USA).
Preparing conditioned medium. Cells were grown in LB medium to exponential phase. 0.1 ml of culture was added to 100 ml of MSgg medium and grown without shaking in a 500 ml beaker at 23° C. Next, pellicles and conditioned medium was collected by centrifugation at 8,000 rpm for 15 min. The conditioned medium (supernatant fluid) was removed and filtered through a 0.22 μm filter. The filtrates were stored at 4° C. For further purification the biofilm-inhibiting activity was fractionated on a C-18 Sep Pak cartridge using stepwise elution of 0% to 100% methanol with steps of 5%.
To investigate whether mature biofilms produce a factor that triggers biofilm disassembly, the effect of concentrated and partially purified extracts of conditioned medium on pellicle formation when added to fresh medium was assayed. To this end, conditioned medium from an eight-day-old culture was applied to a C18 Sep Pak column. Concentrated eluate from the column was then added to a freshly inoculated culture. […] Further purification of the factor was achieved by eluting the cartridge in step-wise fashion with increasing concentrations of methanol.
Next, the minimum concentration (MIC for Minimal Inhibitory Concentration) needed to prevent biofilm formation was determined.

Pseudomonas aeruginosa = assay: Attached single cells in well plate, Syto-9 staining; type: cell-based; conditions: Pseudomonas aeruginosa, 12 h, read-out: % Inhibition relative to control (0%, <50%, 50-90%, >90%)
Procedure: An alternative method to observe biofilm formation on a 6 well plate with or without D-amino acids and using Syto-9 staining was as follows: Pseudomonas aeruginosa biofilms were washed twice with PBS and then fixed for at least an hour in 5% Glutaraldehyde in PBS. The fixed biofilms were then rinsed once again with PBS and soaked in 0.1% v/v Triton X-100 in PBS (PBST) for 15 minutes. The solution was exchanged with 0.1 nM […] (Invitrogen) in cold PBST and gently rocked in the dark for at least 15 minutes. Fluorescence images of the biofilms were captured with a Leica DMRX compound microscope using a Xe lamp and a K3 Leica filtercube. […] The amount of attached single cells was quantified using image J. The decrease in the amount of cells attached to the epoxy surfaces soaked with D-aa compared with the L-aa control was substantially more.

P.a. Harvard PA14 = assay: Biofilm (colony architecture) formation on defined M63 medium; type: cell-based, Pseudomonas aeruginosa; conditions: 500 μM
Description: Similarly to Bacillus subtilis, Pseudomonas aeruginosa forms a complex architecture on defined medium. These complex structures require the proper formation and assembly of the extra-cellular matrix. […] For these experiments, the organism/strain was P.a. Harvard PA14, the culture medium was M63 and the cell inoculation was at 1.5×10^9 cfu.

S. aureus (strain SCO1) = assay: Biofilm formation on polystyrene, crystal violet staining; type: cell-based, Staphylococcus aureus; conditions: Staphylococcus aureus, read-out: % Inhibition relative to control (0%, <50%, 50-90%, >90%)
Procedure: Crystal violet staining Crystal violet staining was done as described previously (O'Toole et al., Mol. […] Wells were stained with 500 μl of 1.0% Crystal-violet dye, rinsed twice with 2 ml double-distilled water and thoroughly dried.
The effect of D-amino acids on biofilm formation by other bacteria was examined. The pathogenic bacterium Staphylococcus aureus forms biofilms on plastic surfaces (Otto, Curr. Top. Microbiol. Immunol. 322:207 (2008)), which can be detected by washing away unbound cells and staining the bound cells with crystal violet. […] Additionally added to the wells were no amino acids (untreated), D-tyrosine (50 μM) or the D-amino acid mixture ([…] each). Cells bound to the polystyrene were visualized by washing away unbound cells and then staining with crystal violet.
(§2) For experiments reported in Table 1, the organism/strain was S.a. Harvard SCO1, the culture medium was TSB and the cell inoculation was at 2×10^9 cfu. For experiments reported in Table 2, the organism/strain was […], the culture medium was M63 and the cell inoculation was at 1.5×10^9 cfu. Biofilm was visualized using the crystal violet method. The data is shown below in Tables 1 and 2:
For experiments reported in Tables 3 and 4, the organism/strain was S.a. Harvard SCO1, the culture medium was TSB and the cell inoculation was at 2×10^9 cfu. Biofilm was visualized using the crystal violet method.

[2] = tested on: Pseudomonas aeruginosa PA14; assay: as above; type: cell-based; conditions: Pseudomonas aeruginosa, read-out: % Inhibition relative to control (0%, <50%, 50-90%, >90%)
Procedure: Crystal violet staining Crystal violet staining was done as described previously (O'Toole et al., Mol. Microbiol. 30:295 (1998)) except that the cells were grown in 6-well plates. Wells were stained with 500 μl of 1.0% Crystal-violet dye, rinsed twice with 2 ml double-distilled water and thoroughly dried.
P. aeruginosa strain […] was grown in 12-well polystyrene plates for 48 hours at 30° C. in M63 medium containing glycerol (0.2%) and Casamino acids (20 μg/ml). Additionally added to the wells were no amino acids (untreated), D-tyrosine or the D-amino acid equimolar mixture. Cells bound to the polystyrene were visualized by washing away unbound cells and then staining with crystal violet. Wells were stained with 500 μl of 1.0% Crystal-violet dye, rinsed twice with 2 ml double-distilled water and thoroughly dried.
as §2, with “method.” for “method. The data is shown below in Tables 1 and 2:”

[3] = tested on: Bacillus subtilis NCIB3610; assay: Colony biofilm formation on solid MSgg medium; type: cell-based; conditions: 8.5 mM, 4 days
Procedure: as §1

Bacillus subtilis = assay: Cell growth in MSgg medium with shaking; type: cell-based; conditions: 8.5 mM
[4] = tested on: matrix operons eps and yqxM; assay: Expression of PyqxM-lacZ and PepsA-lacZ (β-galactosidase activity); type: cell-based, Bacillus subtilis; conditions: 8.5 mM, strains FC122 and FC5, MSgg, shaking
Procedure: Assays of β-galactosidase activity. Cells were cultured in MSgg medium at 37° C. in a water bath with shaking 1 ml of culture was collected at each time point. β-galactosidase activity was determined as described previously (Chai et al., Mol. Microbiol. 67:254 (2008)).

[5] = Table 3, 10 μM, 24 h/37° C., polystyrene, TSB
[6] = Table 3, 100 μM, 24 h/37° C., polystyrene, TSB
[7] = Table 3, 500 μM, 24 h/37° C., polystyrene, TSB
[8] = PA14, Table 2, 100 nM, 48 h/30° C., polystyrene, M63
[9] = Table 1, 100 nM, 24 h/37° C., polystyrene, TSB
[10] = Table 1, 10 μM, 24 h/37° C., polystyrene, TSB
[11] = Table 1, 100 μM, 24 h/37° C., polystyrene, TSB
[12] = Table 1, 500 μM, 24 h/37° C., polystyrene, TSB

C[C@@H](N)C(=O)O [D-alanine]
Biofilm-inhibition assay for B. subtilis [1]: not effective

N[C@@H](Cc1ccc(O)cc1)C(=O)O [L-tyrosine, reference compound]
inhibition at 500 µM (Pseudomonas aeruginosa): 0%
Biofilm formation on defined medium (FIG. 20) (P.a. Harvard PA14): did not

O=C(O)[C@H]1CCCN1 [D-proline]
inhibition at 10 µM (S. aureus (strain SCO1); [5]): < 50%
inhibition at 100 µM (S. aureus (strain SCO1); [6]): < 50%
inhibition at 500 µM (S. aureus (strain SCO1); [7]): > 90%
inhibition at 1000 µM (S. aureus (strain SCO1); Table 3, 1 mM, 24 h/37° C., polystyrene, TSB): > 90%

CSCC[C@H](N)C(=O)O [L-methionine, reference compound]
Inhibition of biofilm formation (FIG. 5) ([1]; 5 mM, 3 days): Only the D-amino acids were active

N[C@@H](Cc1c[nH]c2ccccc12)C(=O)O [L-tryptophan, reference compound]
Inhibition of biofilm formation (FIG. 5) ([1]; 5 mM, 3 days): Only the D-amino acids were active
Biofilm formation on defined medium (FIG. 20) (P.a. Harvard PA14): did not

N[C@H](Cc1c[nH]c2ccccc12)C(=O)O [D-tryptophan]
inhibition at 0.1 µM ([2]; PA14, 48 h): 0%
inhibition at 10 µM ([2]; PA14, 48 h): < 50%
inhibition at 100 µM ([2]; PA14, 48 h): 50 to 90%
inhibition at 500 µM ([2]; PA14, 48 h): 50 to 90%
inhibition at 0.1 µM (S. aureus (strain SCO1); 24 h): 0%
inhibition at 10 µM (S. aureus (strain SCO1); 24 h): 0%
inhibition at 100 µM (S. aureus (strain SCO1); 24 h): < 50%
inhibition at 500 µM (S. aureus (strain SCO1); 24 h): < 50%
Inhibition of biofilm formation (FIG. 5) ([1]; 0.5 mM, 3 days): active in inhibiting biofilm formation
minimum concentration (MIC for Minimal Inhibitory Concentration) needed to prevent biofilm formation [1]: around 1 mM
Biofilm-inhibition assay for B. subtilis [1]: significant inhibition of biofilm growth
Biofilm formation on defined medium (FIG. 20) (P.a. Harvard PA14): inhibited biofilm formation

CSCC[C@@H](N)C(=O)O [D-methionine]
inhibition at 0.1 µM [2, 8]: 0%
inhibition at 0.1 µM (S. aureus (strain SCO1); [9]): 0%
inhibition at 10 µM (S. aureus (strain SCO1); [10]): 0%
inhibition at 100 µM (S. aureus (strain SCO1); [11]): 0%
inhibition at 500 µM (S. aureus (strain SCO1); [12]): 0%
Inhibition of biofilm formation (FIG. 5) ([1]; 2 mM, 3 days): active in inhibiting biofilm formation
minimum concentration (MIC for Minimal Inhibitory Concentration) needed to prevent biofilm formation [1]: around 1 mM
Biofilm-inhibition assay for B. subtilis [1]: significant inhibition of biofilm growth

N[C@H](Cc1ccccc1)C(=O)O [D-phenylalanine]
inhibition at 10 µM (S. aureus (strain SCO1); [5]): < 50%
inhibition at 100 µM (S. aureus (strain SCO1); [6]): < 50%
inhibition at 500 µM (S. aureus (strain SCO1); [7]): > 90%
Biofilm-inhibition assay for B. subtilis [1]: not effective

CC(C)C[C@@H](N)C(=O)O [D-leucine]
inhibition at 0.1 µM [2, 8]: 0%
inhibition at 10 µM ([2]; PA14, Table 2, 10 μM, 48 h/30° C., polystyrene, M63): 0%
inhibition at 100 µM ([2]; PA14, Table 2, 100 μM, 48 h/30° C., polystyrene, M63): 0%
inhibition at 500 µM ([2]; PA14, Table 2, 500 μM, 48 h/30° C., polystyrene, M63): 0%
Biofilm formation on solid MSgg medium (FIG. 6) [3]: inhibited biofilm formation
inhibition at 0.1 µM (S. aureus (strain SCO1); [9]): 0%
inhibition at 10 µM (S. aureus (strain SCO1); [10]): 0%
inhibition at 100 µM (S. aureus (strain SCO1); [11]): 0%
inhibition at 500 µM (S. aureus (strain SCO1); [12]): 0%
Effect on pellicle formation (FIG. 2A) ([1]; 8.5 mM, freshly inoculated culture, biofilm-inducing medium, 3 days): significant inhibition of biofilm growth
minimum concentration (MIC for Minimal Inhibitory Concentration) needed to prevent biofilm formation [1]: around 1 mM
Biofilm-inhibition assay for B. subtilis [1]: significant inhibition of biofilm growth
Cell growth (FIG. 8) (Bacillus subtilis): substantially the same as the untreated sample
yqxM and eps expression (FIG. 9A, 9B) [4]: substantially the same as the untreated sample
